According to ChEMBL document CHEMBL1201862, “PubChem BioAssay data set” (2004):
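Following 48 hours of exposure in 96-well plates, responses at five concentrations were used to interpolate endpoints linearly. GI50 = concentration required for 50% inhibition of growth.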 Activity calls are given as the source filed them. Rule as the data show it: active = GI50 up to about 1.1 µM and inactive = higher. Where a SMILES comes first, the peptide text is derived from it.

What was measured:
Assay in all cases: DTP human tumour cell line panel, 48 h
[1] = test system: ACHN
[2] = test system: HCT-116
[3] = test system: HL-60
[4] = test system: HT-29
[5] = test system: Hs-578T
[6] = test system: IGROV-1
[7] = test system: LOX IMVI
[8] = test system: MCF7
[9] = test system: NCI-H23
[10] = test system: NCI/ADR-RES
[11] = test system: OVCAR-3
[12] = test system: OVCAR-4
[13] = test system: OVCAR-5
[14] = test system: OVCAR-8
[15] = test system: SK-MEL-2
[16] = test system: SK-OV-3
[17] = test system: SNB-19
[18] = test system: SR
[19] = test system: T47D
[20] = test system: UACC-62

Measured: GI50

c1ccc(-c2c(-c3[nH]c4ccccc4c3-c3ccccc3)[nH]c3ccccc23)cc1
inactive: [1] 3.33 µM | [2] 4.06 µM | [3] 3.06 µM | [4] 3.45 µM | [5] 9.38 µM | [6] 4.75 µM | [7] 1.92 µM | [8] 3.33 µM | [9] 2.63 µM | [10] 3.72 µM | [11] 2.3 µM | [12] 2.17 µM | [13] 11.1 µM | [14] 4.29 µM | [15] 8.45 µM | [16] 8.15 µM | [17] 6.5 µM | [18] 2.74 µM | [19] 2.53 µM | [20] 9.98 µM

O=C1C(Nc2ccccc2)=CC2=NCCc3n[nH]c1c32
inactive: [1] 55.6 µM | [2] 18 µM | [3] 21.1 µM | [4] 37 µM | [5] 42.2 µM | [6] 37.8 µM | [7] 13.9 µM | [8] 26.7 µM | [9] 33.9 µM | [10] 28.6 µM | [11] 25 µM | [12] 27.2 µM | [13] > 100 µM | [14] 21 µM | [15] 61.7 µM | [16] > 100 µM | [17] 63.8 µM | [18] 25.2 µM | [19] 34.4 µM | [20] 21.5 µM

COc1ccc(Oc2ccc3cc4c(cc3c2O)OCO4)c2cc(C)oc12
inactive: [1] 35.6 µM | [2] 26.4 µM | [3] 25.1 µM | [4] 23.2 µM | [5] 37.7 µM | [6] 37.8 µM | [7] 19.3 µM | [8] 34 µM | [9] 26.4 µM | [10] 20.9 µM | [11] 28.8 µM | [12] 22.4 µM | [13] 59 µM | [14] 37.5 µM | [15] 18.5 µM | [16] 52.7 µM | [17] 36.9 µM | [18] 19.3 µM | [19] 12.3 µM | [20] 35.6 µM

CCC(C)C(NC(=O)C1CCCN1C(=O)C(CC(C)C)NC(=O)C(CC(C)C)NC(=O)C(N)CC(C)C)C(=O)NC(C(=O)NCC(=O)NC(CC(N)=O)C(=O)NC(CC(C)C)C(=O)NC(CC(C)C)C(=O)NC(CC(C)C)C(N)=O)C(C)C (stereo not given) (H-LLLPIVGNLLL-NH2; configuration not given here)
inactive: [1] > 50 µM | [2] > 50 µM | [3] > 50 µM | [4] > 50 µM | [5] > 50 µM | [6] > 50 µM | [7] > 50 µM | [8] > 50 µM | [9] > 50 µM | [10] > 50 µM | [11] > 50 µM | [12] > 50 µM | [13] > 50 µM | [14] > 50 µM | [15] > 50 µM | [16] > 50 µM | [17] > 50 µM | [18] > 50 µM | [19] > 50 µM | [20] > 50 µM
